Laboratory results: patent US20080070924A1 (priority 2003, published 2008)
Like-named read-outs stand apart in the source and are kept apart here.

Assays:
[1] = tested on: ricinus oil-induced diarrhea; settings: in vivo; for effect on ricinus oil-induced diarrhea: sc
[2] = tested on: opioid-induced PCO2 increases; settings: rat, in vivo, sc
[3] = tested on: opioid-induced PCO2 increases; settings: guinea pig, in vivo
[4] = tested on: acetone-induced lifting behaviour; test: Tolerance in a chronic neuropathic pain model (CCI gerbils, acetone spray test); type: in vivo
[5] = tested on: ricinus oil-induced diarrhea; test: whole plant or invertebrate; settings: in Meriones unguiculatus, sc, 8 h, read-out: ED50 of the opioid to postpone the ricinus oil-induced diarrhea
[6] = tested on: ricinus oil-induced diarrhea; settings: rat, in vivo
charcoal propulsion [7] = tested on: charcoal propulsion; design: species or system rats; settings: rat, in vivo
morphine-induced emesis = test: Inhibition of morphine-induced emesis in ferrets
charcoal propulsion [8] = settings: in vivo
[9] = tested on: opioid-induced PCO2 increases; settings: in vivo

Q: `COc1ccc2c3c1O[C@H]1[C@@H](O)C=C[C@H]4[C@@H](C2)N(C)CC[C@@]341` [Codeine, codeine] was tested. Which “effect on ricinus oil-induced diarrhea” value [1] did it give?
A: dose-dependent inhibition

Q: Which results are given for `CN1CC[C@]23c4c5ccc(O)c4O[C@H]2[C@@H](O)C=C[C@H]3[C@H]1C5` [Morphine, morphine]?
A: PCO2 after opioid [2]: increased levels of PCO2; PCO2 after opioid ([3]; sc): increase in PCO2; acetone-induced lifting behaviour, acute effect ([4]; 2.5 mg/kg i.p. twice daily): acutely reduced; acetone-induced lifting behaviour at day 7 ([4]; 2.5 mg/kg i.p. twice daily, reductions of activity from the second day onwards): no differences with the controls; ED50 [5]: 0.72 mg/kg; effect on ricinus oil-induced diarrhea ([6]; sc): dose-dependent inhibition; charcoal test result in rats compared with gerbils (charcoal propulsion [7]): comparable results; effect on ricinus oil-induced diarrhea [1]: dose-dependent inhibition; doses causing central side-effects (morphine-induced emesis; i.p.): > 0.8 mg/kg; emesis on increasing the dose from 0.4 to 0.8 mg/kg (morphine-induced emesis; i.p.): more animals with emesis and increased frequencies of periods of emesis, retches and vomiting

Q: With `COc1ccc2c3c1O[C@H]1C(=O)CC[C@@]4(O)[C@@H](C2)N(C)CC[C@]314` [Oxycodone, oxycodone] as the molecule, how does the ED50 [5] read?
A: 5.02 mg/kg

Q: What about the “effect on ricinus oil-induced diarrhea” value [1] of the same molecule?
A: dose-dependent inhibition

Q: Which results are given for “(+)-(B)-trans-4-[1-[3,5-bis(trifluoromethyl)benzoyl]-2-(phenylmethyl)-4-piperidinyl]-N-(2,6-dimethylphenyl)-1-piperazine acetamide (L)-malic acid (1:1) [Compound 95]”?
A: effect on PCO2, given alone ([2]; 40 mg/kg): did not affect the PCO2 levels; effect on opioid-induced increases in PCO2 ([2]; 40 mg/kg): some attenuation; number of animals reaching high (>50 mm Hg) levels of PCO2 ([2]; 40 mg/kg): especially reduced; effect on PCO2, given alone [3]: did not affect PCO2 values; effect on opioid-induced PCO2 levels [3]: reductions in the opioid-induced PCO2 levels; acetone-induced lifting behaviour, given alone ([4]; 2.5 mg/kg i.p. twice daily, 11 days, during some days of the experiment): limited activity; activity over the testing period, combination with morphine ([4]; 2.5 mg/kg morphine with 2.5 mg/kg Compound 95 i.p. twice daily, 11 days): the activity remained present over the entire testing period; effect of adding to the opioids on their ED50s [6]: did not alter the ED50s of the opioids; effects on constipation, given alone [6]: minimal effects; charcoal test result in rats compared with gerbils (charcoal propulsion [7]): comparable results; effect of adding to the opioids on charcoal propulsion (charcoal propulsion [8]): did not affect the outcome of the opioids; effect on charcoal propulsion, given alone (charcoal propulsion [8]): inactive; effect on PCO2, given alone [9]: no effects were observed; effect on opioid-induced PCO2 levels [9]: significant decreases; effect of adding to the opioids on their ED50s [1]: did not alter the ED50s of the opioids; effects on constipation, given alone [1]: minimal effects; frequency of retches, vomiting and periods of emesis (morphine-induced emesis; at 0.4 mg/kg morphine): non-significant tendency; number (frequency) of vomits (morphine-induced emesis; at 0.8 mg/kg morphine, 10 mg/kg Compound 95 i.p.): diminished significantly; number of retches (morphine-induced emesis; at 0.8 mg/kg morphine, 10 and 40 mg/kg i.p. Compound 95): significantly reduced
